This is an account of results in patent US12528792B2, “Sulfonamide compounds and the use thereof in the treatment of cancer” (TROBIO THERAPEUTICS PTY LTD, priority 2019, dated 2026).

For one assay, the system named is A2780 (ovarian) cells. The experiment in a line: Anti-proliferative activity, Cell-Titre luminescent viability assay. Particulars: Homo sapiens, 72 h exposure, Cell-Titre luminescent reagent. Format: cell-based. The protocol: (§1) The ability of compounds of the disclosure to inhibit the proliferation of cancer cells representative of non-small cell lung cancer and ovarian cancer (Table 1), and pancreatic cancer, colorectal cancer and prostate cancer (Table 2) was assessed. Briefly, a predetermined number of cells as calculated from cell growth assays for each of the cell lines employed were seeded into their respective culture medium (using ATCC culture parameters—http://www.atcc.org) and cultured for 24 h at 37° C. and 5% CO2 in 96-well culture plates. Once attached, each cell line was then exposed to various concentrations of each respective analogue (100, 30, 10, 3, 1 and 0.3 µM or 30, 10, 3, 1, 0.3 and 0.1 μM), cultured for a further 72 h and exposed to Cell-Titre luminescent reagent (100 μL/well) for a further 30 min. Luminescence was captured using an EnVision multilabel reader and the data for each analogue concentration compared against no treatment control. Cell viability was normalised to control (vehicle alone) and dose response curves, and half maximal effective concentration (EC50) values were determined using Graph Pad Prism 6 (nonlinear regression sigmoidal dose-response variable slope).

The next assay deals with A549 (NSCLC) cells. Described as above. Particulars: Homo sapiens, 72 h exposure, Cell-Titre luminescent reagent. Format: cell-based. The procedure:
as §1

As usually defined, the IC50 is the concentration at which inhibition is half-maximal. In the case of `O=C(Nc1ccc(F)nc1)c1ccn(S(=O)(=O)c2ccc3[nH]ccc3c2)c1` [Compound 74, 1-((1H-indol-5-yl)sulfonyl)-N-(6-fluoropyridin-3-yl)-1H-pyrrole-3-carboxamide], the IC50 with A2780 (ovarian) cells is 3.9 µM; in the assay with A549 (NSCLC) cells it was more than 30 µM.
For `CC(C)c1ccccc1NC(=O)c1ccn(S(=O)(=O)c2ccc3[nH]ccc3c2)c1` [Compound 39, 1-((1H-indol-5-yl)sulfonyl)-N-(2-isopropylphenyl)-1H-pyrrole-3-carboxamide] the same measures were more than 30 µM and more than 30 µM.
For the molecule `CC(C)(C)c1ccc(NC(=O)c2ccn(S(=O)(=O)c3ccc4[nH]ccc4c3)n2)cc1F` [Compound 114, 1-((1H-indol-5-yl)sulfonyl)-N-(4-(tert-butyl)-3-fluorophenyl)-1H-pyrazole-3-carboxamide], the 50% inhibitory concentration (IC50) in the assay with A2780 (ovarian) cells stood at 10.5 µM; with A549 (NSCLC) cells it was 5.93 µM.
The matching figures for `CCC(C)c1ccc(NCC2CCN(S(=O)(=O)c3cc(C(N)=O)n(C)c3)CC2)cc1` (centres unmarked) [Compound 33, 4-((4-(((4-(sec-butyl)phenyl)amino)methyl)piperidin-1-yl)sulfonyl)-1-methyl-1H-pyrrole-2-carboxamide]: 12.1 µM and more than 100 µM.
The matching figures for `CCCc1ccc(NC(=O)c2ccn(S(=O)(=O)c3ccc4[nH]ccc4c3)c2)cc1F` [Compound 97, 1-((1H-indol-5-yl)sulfonyl)-N-(3-fluoro-4-propylphenyl)-1H-pyrrole-3-carboxamide]: 8.31 µM and 10.7 µM.
The matching figures for `CCc1ccc(NC(=O)c2ccn(S(=O)(=O)c3ccc4[nH]ccc4c3)c2)cc1` [Compound 40, 1-((1H-indol-5-yl)sulfonyl)-N-(4-ethylphenyl)-1H-pyrrole-3-carboxamide]: 11 µM and 11.3 µM.
With `CCC(C)c1ccc(NC(=O)c2ccn(S(=O)(=O)c3ccc4[nH]ccc4c3)c2)cc1F` (centres unmarked) [Compound 94, 1-((1H-indol-5-yl)sulfonyl)-N-(4-(sec-butyl)-3-fluorophenyl)-1H-pyrrole-3-carboxamide], the half-inhibitory concentration (IC50) in the assay on A2780 (ovarian) cells was 4.32 µM; in the assay on A549 (NSCLC) cells it was 7.92 µM.
The matching figures for `O=C(Nc1c(F)cccc1F)c1ccn(S(=O)(=O)c2ccc3[nH]ccc3c2)c1` [Compound 53, 1-((1H-indol-5-yl)sulfonyl)-N-(2,6-difluorophenyl)-1H-pyrrole-3-carboxamide]: more than 30 µM and more than 30 µM.
Consider `O=C(Nc1ccc(F)c(Cl)c1)c1ccn(S(=O)(=O)c2ccc3[nH]ccc3c2)n1` [Compound 82, 1-((1H-indol-5-yl)sulfonyl)-N-(3-chloro-4-fluorophenyl)-1H-pyrazole-3-carboxamide], for which the IC50 in the assay with A2780 (ovarian) cells is 10.5 µM; in the assay on A549 (NSCLC) cells, 16.1 µM.
Take `Cn1cc(S(=O)(=O)N2CCC(C(=O)NC3CCCCC3)CC2)cc1C(N)=O` [Compound 31, 1-((5-carbamoyl-1-methyl-1H-pyrrol-3-yl)sulfonyl)-N-cyclohexylpiperidine-4-carboxamide]: the IC50 in the assay on A2780 (ovarian) cells and with A549 (NSCLC) cells was more than 100 µM throughout.
On to `COc1ccc(NC(=O)c2ccn(S(=O)(=O)c3ccc4[nH]ccc4c3)n2)cc1F` [Compound 116, 1-((1H-indol-5-yl)sulfonyl)-N-(3-fluoro-4-methoxyphenyl)-1H-pyrazole-3-carboxamide], for which the IC50 with A2780 (ovarian) cells is more than 30 µM; with A549 (NSCLC) cells, 13.4 µM.
The matching figures for `Cc1cccc(F)c1NC(=O)c1ccn(S(=O)(=O)c2ccc3[nH]ccc3c2)c1` [Compound 55, 1-((1H-indol-5-yl)sulfonyl)-N-(2-fluoro-6-methylphenyl)-1H-pyrrole-3-carboxamide]: more than 30 µM and more than 30 µM.
For `COc1ccc(NC(=O)c2ccn(S(=O)(=O)c3ccc4[nH]ccc4c3)c2)cc1F` [Compound 103, 1-((1H-indol-5-yl)sulfonyl)-N-(3-fluoro-4-methoxyphenyl)-1H-pyrrole-3-carboxamide] the same measures were more than 30 µM and more than 30 µM.
For `CC(C)(C)c1ccc(NC(=O)c2ccn(S(=O)(=O)c3ccc4[nH]ccc4c3)c2)cc1F` [Compound 101, 1-((1H-indol-5-yl)sulfonyl)-N-(4-(tert-butyl)-3-fluorophenyl)-1H-pyrrole-3-carboxamide] the same measures were 4.53 µM and 5.17 µM.
For `Cn1cc(S(=O)(=O)n2ccc(C(=O)Nc3ccc(C(F)(F)F)cc3)c2)cc1C(N)=O` [Compound 20, 1-methyl-4-((3-((4-(trifluoromethyl)phenyl)carbamoyl)-1H-pyrrol-1-yl)sulfonyl)-1H-pyrrole-2-carboxamide], the half-inhibitory concentration (IC50) in the assay on A2780 (ovarian) cells is 24.7 µM; in the assay with A549 (NSCLC) cells, more than 100 µM.
For `O=C(Nc1ccc(Cl)c(F)c1)c1ccn(S(=O)(=O)c2ccc3[nH]ccc3c2)n1` [Compound 81, 1-((1H-indol-5-yl)sulfonyl)-N-(4-chloro-3-fluorophenyl)-1H-pyrazole-3-carboxamide] the same measures were 9.33 µM and more than 30 µM.
The matching figures for `CC(C)c1ccc(NC(=O)c2ccn(S(=O)(=O)c3ccc4[nH]ccc4c3)c2)cc1F` [Compound 95, 1-((1H-indol-5-yl)sulfonyl)-N-(3-fluoro-4-isopropylphenyl)-1H-pyrrole-3-carboxamide]: 5.28 µM and 7.84 µM.
With `CCC(C)c1ccc(NC(=O)c2ccn(S(=O)(=O)c3ccc4[nH]ccc4c3)n2)cc1F` (centres unmarked) [Compound 106, 1-((1H-indol-5-yl)sulfonyl)-N-(4-(sec-butyl)-3-fluorophenyl)-1H-pyrazole-3-carboxamide], the IC50 with A2780 (ovarian) cells came out at 9.85 µM; in the assay on A549 (NSCLC) cells it was 5.44 µM.
Take `CC(C)Cc1ccc(NC(=O)c2ccn(S(=O)(=O)c3ccc4[nH]ccc4c3)c2)cc1` [Compound 98, 1-((1H-indol-5-yl)sulfonyl)-N-(4-isobutylphenyl)-1H-pyrrole-3-carboxamide]: the IC50 with A2780 (ovarian) cells is 5.07 µM; with A549 (NSCLC) cells it was 13.2 µM.
For `Cc1cc(C)cc(NC(=O)c2ccn(S(=O)(=O)c3ccc4[nH]ccc4c3)c2)c1` [Compound 52, 1-((1H-indol-5-yl)sulfonyl)-N-(3,5-dimethylphenyl)-1H-pyrrole-3-carboxamide] the same measures were 11.8 µM and 10.7 µM.
For `CC(C)Cc1ccc(NC(=O)c2ccn(S(=O)(=O)c3ccc4[nH]ccc4c3)n2)cc1F` [Compound 112, 1-((1H-indol-5-yl)sulfonyl)-N-(3-fluoro-4-isobutylphenyl)-1H-pyrazole-3-carboxamide] the same measures were 8.81 µM and 5.11 µM.
For `Cc1ccc(NC(=O)c2ccn(S(=O)(=O)c3cc(C(N)=O)n(C)c3)c2)cc1O` [Compound 19, 4-((3-((3-hydroxy-4-methylphenyl)carbamoyl)-1H-pyrrol-1-yl)sulfonyl)-1-methyl-1H-pyrrole-2-carboxamide] the same measures were not below 100 µM and more than 100 µM.
For the molecule `O=C(Nc1ccc(F)nc1)c1ccn(S(=O)(=O)c2ccc3[nH]ccc3c2)n1` [Compound 86, 1-((1H-indol-5-yl)sulfonyl)-N-(6-fluoropyridin-3-yl)-1H-pyrazole-3-carboxamide], the half-maximal inhibitory concentration (IC50) with A2780 (ovarian) cells and with A549 (NSCLC) cells was more than 30 µM throughout.
In the case of `COc1ccc(NC(=O)c2ccn(S(=O)(=O)c3ccc4[nH]ccc4c3)c2)cc1` [Compound 102, 1-((1H-indol-5-yl)sulfonyl)-N-(4-methoxyphenyl)-1H-pyrrole-3-carboxamide], the IC50 was determined as 13.4 µM in the assay on A2780 (ovarian) cells and 16.1 µM in the assay on A549 (NSCLC) cells.
The matching figures for `O=C(Nc1ccc(F)cn1)c1ccn(S(=O)(=O)c2ccc3[nH]ccc3c2)n1` [Compound 84, 1-((1H-indol-5-yl)sulfonyl)-N-(5-fluoropyridin-2-yl)-1H-pyrazole-3-carboxamide]: more than 30 µM and more than 30 µM.
The matching figures for `O=C(Nc1ccc(F)cc1)c1ccn(S(=O)(=O)c2ccc3[nH]ccc3c2)n1` [Compound 76, 1-((1H-indol-5-yl)sulfonyl)-N-(4-fluorophenyl)-1H-pyrazole-3-carboxamide]: 23.8 µM and more than 30 µM.
The matching figures for `CC(C)Cc1ccc(NC(=O)c2ccn(S(=O)(=O)c3ccc4[nH]ccc4c3)c2)cc1F` [Compound 99, 1-((1H-indol-5-yl)sulfonyl)-N-(3-fluoro-4-isobutylphenyl)-1H-pyrrole-3-carboxamide]: 4.9 µM and 7.47 µM.
For the molecule `Cc1ccccc1NC(=O)C1CCN(S(=O)(=O)c2ccc3[nH]ccc3c2)CC1` [Compound 62, 1-((1H-indol-5-yl)sulfonyl)-N-(o-tolyl)piperidine-4-carboxamide], the half-maximal inhibitory concentration (IC50) in the assay with A2780 (ovarian) cells and with A549 (NSCLC) cells was more than 30 µM each time.
`Cc1ccc(NC(=O)C2CCN(S(=O)(=O)c3cc(C(N)=O)n(C)c3)CC2)cc1O` [Compound 1, 1-((5-carbamoyl-1-methyl-1H-pyrrol-3-yl)sulfonyl)-N-(3-hydroxy-4-methylphenyl)piperidine-4-carboxamide]: the half-maximal inhibitory concentration (IC50) with A2780 (ovarian) cells and in the assay with A549 (NSCLC) cells was more than 100 µM throughout.
Regarding `O=C(Nc1ccc(Cl)cc1)c1ccn(S(=O)(=O)c2ccc3[nH]ccc3c2)n1` [Compound 77, 1-((1H-indol-5-yl)sulfonyl)-N-(4-chlorophenyl)-1H-pyrazole-3-carboxamide], the 50% inhibitory concentration (IC50) with A2780 (ovarian) cells is more than 30 µM; in the assay on A549 (NSCLC) cells, 19 µM.
In the case of `Cc1ccc(NC(=O)C2CCN(S(=O)(=O)c3ccc4c(c3)CCN4)CC2)cc1O` [Compound 4, N-(3-hydroxy-4-methylphenyl)-1-(indolin-5-ylsulfonyl)piperidine-4-carboxamide], the IC50 in the assay on A2780 (ovarian) cells and in the assay on A549 (NSCLC) cells was more than 100 µM throughout.
